Experimental findings from US9018173B2, “Materials and methods for suppressing inflammatory and neuropathic pain” (Indiana University Research and Technology Corp., priority 2010, dated 2015) are described below.

The test system of assay [1] is CaV2.2 cytosolic loop 1 (L1) and distal C-terminus (Ct-dis). Briefly: Surface plasmon resonance binding to CaV2.2 L1- and Ct-dis-GST fusion proteins. To be noted: peptide 1/3/5 μM. Set-up: species or system rat. The text has this: In Vitro Protein Binding Assays. Using Vector NTI (v. 11; Invitrogen) software, primers were designed to amplify regions corresponding to the first cytoslic loop (L1; amino acids 356 to 483) and the distal end of the C-terminus (Ct-dis; amino acids 2133 to 2348) of rat CaV2.2 cDNA from P3 rat brain cDNA. The primers harbored restriction sites (Bam HI or Bgl II (5′) and Eco RI or Mfe I (3′)) to facilitate cloning into […]. In addition to the GST-tag, this vector contains the Glu tag, a sequence of six amino acids (EYMPME). Correctly-amplified PCR products and parent pGex-3x-Glu vector were digested with the indicated restriction enzymes, and then extracted following electrophoresis on an agarose gel. The extracted DNAs were quantified (Nanodrop 1000, Thermo Scientific), and ligations were performed using 6:1 and 3:1 insert to vector molar ratios. […]
Surface Plasmon resonance (SPR). Binding analyses between TAT CBD3 or TAT control peptides and CaV2.2 L1- or Ct-dis-GST fusion proteins was determined by surface plasmon resonance using a BIAcore3000 instrument (Biacore AB, Uppsala, Sweden). […]
Biochemistry and immunocytochemistry experiments. […] The binding between TAT CBD3 or TAT control peptides and CaV2.2 L1- or Ct-dis-GST fusion proteins was determined by surface plasmon resonance using a BIAcore3000 instrument (Biacore AB, Uppsala, Sweden).

Assay [2] concerns the target T1, interaction between tubulin and CRMP-2 (Rattus norvegicus, UniProt P47942).
T1 construct: from tissue; host or cells: rat brain / spinal cord lysates (tubulin)
Briefly: Immunoprecipitation of CRMP-2/tubulin in the presence of peptides. It is filed as binding. To be noted: spinal cord lysates.

Assay [3] concerns cortical layer V pyramidal neurons. Briefly: Cortical slice recordings of evoked EPSCs. It is filed as cell-based, CD1 mice. The conditions noted are these: 10 μM.
Assay [4] has as its system CaV2.2 surface expression in CAD cells. Briefly: CaV2.2 surface expression in CAD cells (immunocytochemistry, surface biotinylation). It is filed as cell-based. The method, then:
Catecholamine A Differentiated (CAD) cells. CAD cells were grown at 37° C. and in 5% CO2 (Sarstedt, Newton, N.C.) in Ham's F12/EMEM medium (GIBCO, Grand Island, N.Y.), supplemented with 8% fetal bovine serum (FBS; Sigma, St. Louis, Mo.) and 1% penicillin/streptomycin ([…], 10,000 U/ml penicillin G sodium and 10,000 μg/ml streptomycin sulfate). Cells were passaged every 6-7 days at a 1:25 dilution.
Transient transfection. Adherent cultures were transfected with cDNAs using Lipofectamine 2000 (Invitrogen) as described previously. About 2-3% transfection efficiencies in hippocampal neurons was achieved routinely, 35-40% in DRG, and 75-80% in CAD cells transfected with this method. Typically, cultured cells were transfected with equal amounts of different cDNA constructs and experiments performed two days later.
Cell Surface Biotinylation. Biotinylation was performed as described. […]
Immunocytochemistry. […] Images were acquired on a Nikon Ti swept-field confocal microscope using a 60×, 1.4 NA lens and standard FITC/Texas red fluorescence cubes with a cooled Cascade 512B digital camera (Photometrics, Tucson, Ariz.). […]

As for ARSRLAELRGVPRGL (CBD3), the “binding to immobilized L1 and Ct-dis proteins (surface plasmon resonance)” value in assay [1] was “bound to immobilized L1 and Ct-dis proteins”. Further, in assay [2], the “interaction between tubulin and CRMP-2 (immunoprecipitation)” value is reported as “did not affect”. Also, the “paired-pulse ratio (PPR)” value in assay [3] is on record as “increased pair pulse ratios”. Moreover, the “CaV2.2 localisation on co-expression” value in assay [4] (co-expression of CaV2.2 with CBD3 in CAD cells) was “almost complete retention of the channel in cytoplasmic aggregates”. Further, the “surface expression of co-expressed CaV2.2 (surface biotinylation)” value in assay [4] (expressed in CAD cells) is “prevented surface expression”.
